Laboratory results as given in publication PMC10055976, “Selection and evolution of disulfide-rich peptides via cellular protein quality control” (Chemical Science, 2023).
Where a SMILES comes first, the peptide text is derived from it. Bridges are numbered along the chain shown (N, C = ends).

Tests used:
[1] = Oxidative folding of peptides (HPLC); format: physicochemical; conditions: drp1 and drp4: 10 μM, 100 mM phosphate pH 7.4, 0.2 mM GSSG, drp2, drp3, k-1, k-2: 10 μM, same buffer with 6 M Gu·HCl and 0.2 mM GSSG, overnight, 37 °C
Description: (§1) We then deep-sequenced the DRPs enriched in P9, and a total of ∼1404 different sequences with the expected cysteine patterns were obtained (3 different scaffolds: 256, 742 and 406, respectively; dataset S3 and Fig. 4a). Sequences with stop codon(s) are very rare compared to that found in the previous selection (dataset S4), further confirming the success of the second-generation PQC-select. […] To chemically examine the foldability of the selected DRPs, four sequences were randomly selected for synthesis and oxidation. All of them can be specifically oxidized to a major product as determined using HPLC (Fig. 4b and S7 ^†). […] The disulfide pairing of drp1 was clearly shown by the ^1H–^1H NOESY spectra (Fig. S10 ^†).
Fig. 4 Identification and application of new DRPs selected from the second-generation PQC-select. (a) Top 5 enriched sequences for the three different scaffolds obtained from the second-generation PQC-select, scaffold M-2 (top), scaffold M-6 (middle) and scaffold M-9 (bottom). (b) HPLC chromatograms showing the oxidation of drp1, drp2, drp3 and drp4 in phosphate buffers (pH 7.4, 100 mM) containing 0.2 mM GSSG or 6 M Gu·HCl and 0.2 mM GSSG. […]
Reduced peptides (drp1 and 4, 10 μM) was dissolved in 100 mM phosphate buffer (pH 7.4) containing 0.2 mM GSSG. […] After that, oxidative folding of all the peptides was further analysed using HPLC and mass spectrometry . […]

[2] = biological target: T1, Keap1 kelch domain protein (Residues 321-609) (Homo sapiens, UniProt Q14145); assay: Surface plasmon resonance (SPR) assay of oxidized peptides; format: binding; conditions: for Binding affinity to Keap1 (in words): major oxidized product, SPR, preliminary; for Binding affinity to Keap1 (in words) / SPR sensorgrams: binding of Keap1 (in words): 25 °C, pH 7.4; for SPR sensorgrams: binding of Keap1 (in words): oxidized peptide, HPLC purity >95%
T1 construct: Keap1 kelch domain protein (Residues 321-609, Homo Sapiens); made in house

[3] = Solution NMR structure and disulfide pairing of drp1; format: physicochemical; conditions: oxidized drp1, ~1 mM, 80% perdeuterated acetonitrile / 20% H2O, 302 K
Description: as §1, with “S10 ^†). […]” for “S10 ^†).”
without target protein were then added to half of the blocked phage respectively and incubated for 30 min on a rotating wheel. […]
Reduced peptides (drp1 and 4, 10 μM) was dissolved in 100 mM phosphate buffer (pH 7.4) containing 0.2 mM GSSG. […] After that, oxidative folding of all the peptides was further analysed using HPLC and mass spectrometry .
Drp1 were dissolved in 80% perdeuterated acetonitrile and 20% H2O at a final concentration of about 1 mM . […] Two dimensional (2D) 1H, 15N/13C HSQC spectra were recorded to obtain chemical shifts of heavy atoms […]
in backbone and side-chains. […] The NMR data were processed using NMRPipe/NMRDraw and analyzed using NMRFAM-SPARKY5. […]

T1 sequence (Q14145 321-609): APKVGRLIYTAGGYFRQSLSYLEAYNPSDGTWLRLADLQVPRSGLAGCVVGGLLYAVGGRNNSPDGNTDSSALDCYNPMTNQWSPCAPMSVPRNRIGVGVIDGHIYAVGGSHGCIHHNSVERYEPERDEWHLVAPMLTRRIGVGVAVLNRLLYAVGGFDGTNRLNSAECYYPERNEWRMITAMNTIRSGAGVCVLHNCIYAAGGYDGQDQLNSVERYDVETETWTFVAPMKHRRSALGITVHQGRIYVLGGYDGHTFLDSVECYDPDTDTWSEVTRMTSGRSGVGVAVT

Folding in solution by 1H–1H TOCSY (in words) [3]	Compound	Oxidative folding outcome (in words) [1]	Binding affinity to Keap1 (in words) [2]	SPR sensorgrams: binding of Keap1 (in words) ([2]; 50-3200 nM)	Kd ([2]; oxidized product (major), Biacore T200, 25 °C, biotinylated Keap1 on CAP chip, 10 mM phosphate pH 7.4, 50 μM EDTA, 0.05% Tween 20, 50-3200 nM, multiple cycle kinetics, 1:1 binding model, read-out: KD (equilibrium dissociation constant, SPR)) [µM]	kon ([2]; oxidized product, Biacore T200, 25 °C, 10 mM phosphate pH 7.4, 50 μM EDTA, 0.05% Tween 20, multiple cycle kinetics, 1:1 binding model, local fit, read-out: ka (association rate constant)) [M⁻¹ s⁻¹]	koff ([2]; oxidized product, Biacore T200, 25 °C, 10 mM phosphate pH 7.4, 50 μM EDTA, 0.05% Tween 20, multiple cycle kinetics, 1:1 binding model, local fit, read-out: kd (dissociation rate constant)) [s⁻¹]	3D structure and disulfide pairing by NMR (in words) ([3]; PDB 8GUC, 15 lowest-energy structures)
	CC[C@H](C)[C@@H]1NC(=O)[C@@H]2CCCN2C(=O)[C@H](CCCNC(=N)N)NC(=O)[C@H](CCCNC(=N)N)NC(=O)[C@H]([C@@H](C)O)NC(=O)CNC(=O)[C@H](CCC(N)=O)NC(=O)[C@@H]2CSSC[C@H](NC(=O)[C@H](CCSC)NC(=O)[C@H](C)NC(=O)[C@H](CCCNC(=N)N)NC1=O)C(=O)N[C@@H](CC(N)=O)C(=O)N[C@@H](CC(=O)O)C(=O)N[C@@H](CO)C(=O)N[C@@H](C(C)C)C(=O)N1CCC[C@H]1C(=O)N[C@H]1CSSC[C@H](NC(=O)[C@@H](N)Cc3c[nH]c4ccccc34)C(=O)N3CCC[C@H]3C(=O)N3CCC[C@H]3C(=O)N[C@@H](CSSC[C@@H](C(N)=O)NC(=O)[C@@H]3CCCN3C(=O)[C@@H]3CCCN3C1=O)C(=O)N[C@@H](CCCNC(=N)N)C(=O)N[C@@H](Cc1ccccc1)C(=O)N[C@@H]([C@@H](C)O)C(=O)N[C@@H](CC(C)C)C(=O)N[C@@H](CO)C(=O)N[C@@H](CCC(=O)O)C(=O)N[C@@H](CCC(=O)O)C(=O)N[C@@H]([C@@H](C)O)C(=O)NCC(=O)N[C@@H](CCC(=O)O)C(=O)N2 [k-1] (H-WCPPCRFTLSEETGECQGTRRPIRAMCNDSVPCPPC-NH2; disulfide 2-33, 5-36, 16-27 (inferred))	can be oxidized to a major product	submicromolar range	in a concentration-dependent manner	0.349	54800	0.0191	
well-folded in solution	H-GCPPCRFTLSPWVSPCSNPHWPIRAMCNDSVPCPPC-NH2 (also: bicyclic or more (positions not given here)) [drp1, CPPC disulfide-rich peptide selected by PQC-select; PDB 8GUC]							irregular but rigid loops and a short α-helix constrained through three disulfide bonds with the two CPPC motifs paired parallelly
	H-WCPPCRFTLSPETGECQGTKRPIRAMCNDSVPCPPC-NH2 (also: bicyclic or more (positions not given here)) [k-2]	can be oxidized to a major product	submicromolar range	in a concentration-dependent manner				
